According to US9284303B2, “Benzimidazole cannabinoid agonists bearing a substituted heterocyclic group” (priority 2006, dated 2016):
Read-outs that look alike come from different tables or passages of the source.

What was measured:
[1] = biological target: T1, human CB2 (hCB2) receptor (Homo sapiens, UniProt P34972); test: Inhibition of forskolin-activated cAMP production upon activation of hCB2 (HTRF), CHO-K1 cells; assay type: cell-based; details: for ratio CB2 agonism over CB1 agonism: Table C-1, selectivity hCB2 over hCB1; for EC50: forskolin-activated cAMP, pEC50=-log(EC50)
T1 construct: expressed in transfected cells; host or cells: CHO-K1
T1 sequence (P34972 whole entry): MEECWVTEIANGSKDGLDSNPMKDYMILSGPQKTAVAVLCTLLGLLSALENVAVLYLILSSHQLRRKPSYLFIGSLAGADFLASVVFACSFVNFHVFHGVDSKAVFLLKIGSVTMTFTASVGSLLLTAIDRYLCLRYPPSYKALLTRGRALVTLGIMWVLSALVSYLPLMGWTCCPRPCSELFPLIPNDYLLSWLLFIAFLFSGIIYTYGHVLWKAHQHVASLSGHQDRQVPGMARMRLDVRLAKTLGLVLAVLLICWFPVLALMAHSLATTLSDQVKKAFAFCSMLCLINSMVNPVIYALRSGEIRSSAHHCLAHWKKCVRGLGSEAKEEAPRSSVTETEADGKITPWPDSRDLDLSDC
Protocol: (§1) Functional activity of the test compounds was assessed by measuring their potency to inhibit forskolin-activated cAMP production upon activation of the human CB1 (hCB1) or human CB2 (hCB2) receptor through homogenous time resolved fluorescence (HTRF) assays.
(§2) Before the experiments, medium was removed, cells were washed with PBS/EDTA (140 mM NaCl, 1 mM Naz-EDTA, 8 mM Na2HPO4.2H2O, 8.5 mM KH2PO4, 2.7 mM KCl, 21 mM glucose), resuspended in stimulation buffer (HBSS 1x, IBMX 1 mM, Hepes 5 mM, MgCl2 10 mM, BSA 0.1%, pH 7.4). Cells were diluted to a concentration of 8.10^5 cell/ml for hCB1 experiments and 10^6 cells/ml for hCB2 experiments. Assays were performed using the cAMP Dynamic HTRF kit (CIS bio international, France) according to the recommendations of the manufacturer.
Then, 20 μl of the diluted hCB2-CHO-K1 cells was added (20,000 cells/well). After 30 minutes incubation in dark at room temperature, 10 μl cAMP-XL665 and 10 μl anti-cAMP cryptate (both at a final dilution of 1/100) was added to the cells.

[2] = biological target: T2, human CB1 (hCB1) receptor (Homo sapiens, UniProt P21554); test: Inhibition of forskolin-activated cAMP production upon activation of hCB1 (HTRF), CHO-K1 cells; assay type: cell-based
T2 construct: expressed in transfected cells; host or cells: CHO-K1
T2 sequence (P21554 whole entry): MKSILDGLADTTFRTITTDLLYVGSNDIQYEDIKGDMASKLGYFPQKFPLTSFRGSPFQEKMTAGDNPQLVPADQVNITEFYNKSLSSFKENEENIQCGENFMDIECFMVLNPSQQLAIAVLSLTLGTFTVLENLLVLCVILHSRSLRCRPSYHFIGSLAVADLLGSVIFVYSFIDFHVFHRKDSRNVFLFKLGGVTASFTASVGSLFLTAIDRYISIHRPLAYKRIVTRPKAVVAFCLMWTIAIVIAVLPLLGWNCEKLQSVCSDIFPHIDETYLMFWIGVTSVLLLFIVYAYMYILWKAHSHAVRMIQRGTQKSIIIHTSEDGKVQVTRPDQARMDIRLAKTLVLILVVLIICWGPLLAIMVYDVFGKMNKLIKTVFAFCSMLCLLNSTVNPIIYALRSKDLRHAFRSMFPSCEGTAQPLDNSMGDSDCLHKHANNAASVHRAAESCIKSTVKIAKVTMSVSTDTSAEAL
Protocol: as §1
as §2, with “CHO-K1 cells stably transfected with either hCB1 or hCB2 were grown up to 80-90% confluence in T175 Falcon flasks in DMEM/NUT MIX F-12 culture medium complemented with 2% Solution A (5.10^6 IU/l penicillin G, 5 g/l streptomycin sulphate, 5.5 g/l pyruvate, 14.6 g/l L-glutamine, 1M NaOH) and 10% foetal calf serum. Before” for “Before”
For CB1, each well of a 96 flat bottom black polystyrene assay plate (Costar) was filled with 25 μl stimulation buffer containing 6 μM forskolin and either test compound (in 2% DMSO), 2% DMSO or 2 μM CP55490 (in 2% DMSO). Then, 25 μl of the diluted cells was added (20,000 cells/well). After 30 minutes incubation in dark at room temperature, 25 μl cAMP-XL665 and 25 μl anti-cAMP cryptate (both at a final dilution of 1/80) was added to the cells.
After equilibration of the reaction mixtures for 1 to 24 hours in dark at room temperature, fluorescence was measured at 665 nm and 620 nm using a Discovery microplate fluorescence counter (Perkin Elmer), and the signal ratio of 665 nm/620 nm was calculated. The signal ratios of the test compounds were expressed relative to the signal ratios of the DMSO control (maximal signal ratio, no inhibition of cAMP) and CP55490 or WIN55212-2 for hCB1 and hCB2, respectively (minimal signal ratio, maximal inhibition of cAMP). From the dose response curves generated for each test compound, the dose at which 50% of the maximal inhibition of cAMP level is observed (EC50, expressed in the Tables as pEC50=−log(EC50) values) and the level of inhibition reached with 10 μM of the test compound compared to CP55490 (for hCB1) or WIN55212-2 (for hCB2) was calculated.

[3] = hCB2-CHO-K1 cells, read-out: CB2 pEC50 (converted)
[4] = CB1 pEC50, hCB1-CHO-K1 cells, forskolin-activated cAMP, pEC50=-log(EC50)

Row | Structure (SMILES) | ratio CB2 agonism over CB1 agonism [1] | EC50 [1, 3] | EC50 [2, 4] | EC50 ([1]; CB2 pEC50, hCB2-CHO-K1 cells) | EC50 [2]
1 | CC(C)(C)c1nc2cc(S(=O)(=O)c3ccnc(/C=C\Cl)c3)ccc2n1CC1CCOCC1 [Co. No. 124] | >692 | 14.5 nM | > 10 µM |  | 
2 | CC(C)(C)c1nc2cc(S(=O)(=O)c3ccnc(/C=C/Cl)c3)ccc2n1CC1CCOCC1 [Co. No. 125] | >3981 | 2.51 nM | > 10 µM |  | 
3 | CC(C)(C)OC(=O)NCCCOc1cc(S(=O)(=O)c2ccc3c(c2)nc(C(C)(C)C)n3CC2CCOCC2)ccn1 [Co. No. 130] | >4315 | 2.29 nM | > 10 µM |  | 
4 | CC(C)(C)c1nc2cc(S(=O)(=O)c3ccnc(OCCCN)c3)ccc2n1CC1CCOCC1 [Co. No. 131] | >631 | 15.8 nM | > 10 µM |  | 
5 | CC(=O)NCCCOc1cc(S(=O)(=O)c2ccc3c(c2)nc(C(C)(C)C)n3CC2CCOCC2)ccn1 [Co. No. 132] | >7079 | 1.41 nM | > 10 µM |  | 
6 | CC(C)(C)c1nc2cc(S(=O)(=O)c3ccnc(OCCCN4CCOCC4)c3)ccc2n1CC1CCOCC1 [Co. No. 135] | >4571 | 2.19 nM | > 10 µM |  | 
7 | CC(C)(C)c1nc2cc(S(=O)(=O)c3ccnc(F)c3)ccc2n1CC1CCC1 [Co. No. 136] | >22734 | 0.437 nM | > 10 µM |  | 
8 | Cc1[nH][n+]([O-])cc1[S+]([O-])c1ccc2c(c1)nc(C(C)(C)C)n2CC1CCOCC1 (stereo not drawn) [Co. No. 137] |  | 1.12 nM | 0.776 µM |  | 
9 | CCCCN(C)c1cc(S(=O)(=O)c2ccc3c(c2)nc(C(C)(C)C)n3CC2CCOCC2)ccn1 [Co. No. 138] | 473 | 1.74 nM | 0.832 µM |  | 
10 | CC(C)(C)c1nc2cc(S(=O)(=O)c3ccnc(CCCCN)c3)ccc2n1CC1CCOCC1 [Co. No. 139] | >759 | 13.2 nM | > 10 µM |  | 
11 | CC(=O)NCCCCc1cc(S(=O)(=O)c2ccc3c(c2)nc(C(C)(C)C)n3CC2CCOCC2)ccn1 [Co. No. 141] | >1792 | 5.62 nM | > 10 µM |  | 
12 | C=Cc1cc(S(=O)(=O)c2ccc3c(c2)nc(C(C)(C)C)n3CC2CCOCC2)ccn1 [Co. No. 142] | 1413 | 0.955 nM | 1.35 µM |  | 
13 | CC(=O)N1CCC(Cn2c(C(C)(C)C)nc3cc(S(=O)(=O)c4cc[n+]([O-])cc4)ccc32)CC1 [Co. No. 143] |  | 17 nM | > 10 µM |  | 
14 | CC(C)(C)c1nc2cc(S(=O)(=O)c3ccnc(F)c3)ccc2n1CC1CCOC(=O)CC1 (stereo not drawn) [Co. No. 145] | >3090 | 3.24 nM | > 10 µM |  | 
15 | CCCC(C)Cn1c(C(C)(C)C)nc2cc(S(=O)(=O)c3ccnc(F)c3)ccc21 (stereo not drawn) [Co. No. 148] | >38905 | 0.257 nM | > 10 µM |  | 
16 | CC(C)(C)c1nc2cc(S(=O)(=O)c3ccnc(F)c3)ccc2n1C[C@H]1CC[C@@](C)(O)CC1 [Co. No. 153] | >11749 | 0.851 nM | > 10 µM |  | 
17 | COCCCc1cc(S(=O)(=O)c2ccc3c(c2)nc(C(C)(C)C)n3CC2CCOCC2)cc[n+]1[O-] [Co. No. 155] |  |  |  | 2.51 nM | > 10 µM
18 | COc1ccc(CNCCc2cc(S(=O)(=O)c3ccc4c(c3)nc(C(C)(C)C)n4CC3CCOCC3)ccn2)cc1 [Co. No. 157] | >2884 | 3.47 nM | > 10 µM |  | 
19 | CO[C@H]1CC[C@H](Cn2c(C(C)(C)C)nc3cc(S(=O)(=O)c4ccnc(F)c4)ccc32)CC1 [Co. No. 160] | >2344 | 4.27 nM | > 10 µM |  | 
20 | COCCCn1cc(S(=O)(=O)c2ccc3c(c2)nc(C(C)(C)C)n3CC2CCOCC2)cn1 [Co. No. 161] | 2951 | 1.82 nM | 5.25 µM |  | 
21 | CC(C)(C)c1nc2cc(S(=O)(=O)c3ccnc(F)c3)ccc2n1CCC1OCCO1 [Co. No. 165] | >923 | 10.7 nM | > 10 µM |  | 
